Reference: patent publication US12384789B2, “Compounds for treating Huntington's disease” (PTC Therapeutics, Inc., priority 2017, dated 2025)

These compounds were tested on Endogenous Huntingtin Protein (assay: Endogenous Huntingtin Protein Assay (Meso Scale Discovery ELISA-based electrochemiluminescence)). Settings: MSD electrochemiluminescence, Table 1.
Assay type: cell-based
Outline: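 MSD electrochemiluminescence sandwich ELISA: MW1 (expanded polyQ) or MAB2166 capture antibody at 1 μg/mL, samples incubated overnight at 4° C. Detection with rabbit monoclonal #5656S then SULFO-TAG anti-rabbit antibody, each 0.25 μg/mL for 1 h at room temperature.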
Work on `CCN1CCC(c2nnc3cc(-c4cc(C)c5nc(C)cn5n4)cc(F)c3n2)CC1` [Compound 70, 7-(2,8-dimethylimidazo[1,2-b]pyridazin-6-yl)-3-(1-ethylpiperidin-4-yl)-5-fluoro-1,2,4-benzotriazine] yielded an IC50 of at most 100 nM.
For `Cc1cn2nc(-c3cc(F)c4cc(C5CCN(CCCN(C)C)CC5)nnc4c3)cc(C)c2n1` [Compound 158, 3-{4-[7-(2,8-dimethylimidazo[1,2-b]pyridazin-6-yl)-5-fluorocinnolin-3-yl]piperidin-1-yl}-N,N-dimethylpropan-1-amine], the IC50 was at most 100 nM.
`Cn1cc2cc(-c3ccc4cc(C5CCNCC5)cc(F)c4n3)cc(F)c2n1` [Compound 192, 8-fluoro-2-(7-fluoro-2-methyl-2H-indazol-5-yl)-6-(piperidin-4-yl)quinoline] showed an IC50 of at most 100 nM.
Compound `Cc1cn2nc(-c3cc(F)c4cc(C5CCNCC5)nnc4c3)cc(OCCn3cccn3)c2n1` [Compound 140, 5-fluoro-7-{2-methyl-8-[2-(1H-pyrazol-1-yl)ethoxy]imidazo[1,2-b]pyridazin-6-yl}-3-(piperidin-4-yl)cinnoline] has an IC50 of at most 100 nM.
In the case of `CCN1CCC(c2cc3c(F)cc(-c4cc(CCO)c5nc(C)cn5n4)cc3nn2)CC1` [Compound 206], the IC50 is reported as at most 100 nM.
`Cn1cc2cc(-c3ncc4cc(C5CCNCC5)ccc4n3)ccc2n1` [Compound 10, 2-(2-methyl-2H-indazol-5-yl)-6-(piperidin-4-yl)quinazoline] showed an IC50 of 100 to 500 nM.
For `Cc1cn2nc(-c3cc(F)c4cc(N5CCC(N(C)C)C5)nnc4c3)cc(C)c2n1` (stereo not drawn) [Compound 86, 1-[7-(2,8-dimethylimidazo[1,2-b]pyridazin-6-yl)-5-fluorocinnolin-3-yl]-N,N-dimethylpyrrolidin-3-amine], the IC50 was at most 100 nM.
With `Cc1cn2nc(-c3cc(F)c4cc(C5CCN(C(C)C)CC5)nnc4c3)cc(C)c2n1` [Compound 78, 7-(2,8-dimethylimidazo[1,2-b]pyridazin-6-yl)-5-fluoro-3-[1-(propan-2-yl)piperidin-4-yl]cinnoline] the IC50 was at most 100 nM.
`Cc1cn2cc(-c3cc(F)c4cc(C5CCNCC5)nnc4c3)cc(C)c2n1` [Compound 103, 7-(2,8-dimethylimidazo[1,2-a]pyridin-6-yl)-5-fluoro-3-(piperidin-4-yl)cinnoline] gave an IC50 of at most 100 nM.
Compound `Cc1cn2nc(-c3ccc4cc(C5CCNCC5)nnc4c3)cc(C)c2n1` [Compound 84, 7-(2,8-dimethylimidazo[1,2-b]pyridazin-6-yl)-3-(piperidin-4-yl)cinnoline] has an IC50 of at most 100 nM.
Work on `CC[C@H]1CC(c2cc3c(F)cc(-c4cc(C)c5nc(C)cn5n4)cc3nn2)C[C@H](CC)N1` (stereo partly drawn) [Compound 130, 3-[(2S,6S)-2,6-diethylpiperidin-4-yl]-7-(2,8-dimethylimidazo[1,2-b]pyridazin-6-yl)-5-fluorocinnoline] yielded an IC50 of at most 100 nM.
`Cn1cc2cc(-c3cc4c(F)cc(C5=CCNCC5)cc4nn3)cc(C#N)c2n1` [Compound 175, 5-[5-fluoro-7-(1,2,3,6-tetrahydropyridin-4-yl)cinnolin-3-yl]-2-methyl-2H-indazole-7-carbonitrile] gave an IC50 of at most 100 nM.
`Cn1cc2cc(-c3ccc4cc(C5CCNCC5)ccc4n3)ccc2n1` [Compound 1, 2-(2-methyl-2H-indazol-5-yl)-6-(piperidin-4-yl)quinoline] showed an IC50 of 1000 to 3000 nM.
For `Cc1nc2c(C)cc(-c3cc(F)c4cc(C5CCNCC5)nnc4c3)nc2s1` [Compound 133, 7-(2,7-dimethyl[1,3]thiazolo[5,4-b]pyridin-5-yl)-5-fluoro-3-(piperidin-4-yl)cinnoline], the IC50 was at most 100 nM.
`Cc1cn2cc(-c3cc(F)c4cc(C5CCNCC5)nnc4c3)cnc2n1` [Compound 91, 5-fluoro-7-(2-methylimidazo[1,2-a]pyrimidin-6-yl)-3-(piperidin-4-yl)cinnoline] gave an IC50 of 1000 to 3000 nM.
`Cc1cn2nc(-c3cc(F)c4cc(N5CCC(N(C)C)CC5)nnc4c3)cc(C)c2n1` [Compound 88, 1-[7-(2,8-dimethylimidazo[1,2-b]pyridazin-6-yl)-5-fluorocinnolin-3-yl]-N,N-dimethylpiperidin-4-amine] was tested, and the IC50 was at most 100 nM.
`Cc1cc(-c2cc(F)c3cc(C4CCNCC4)nnc3c2)nc2cn(C)nc12` [Compound 162, 7-(2,7-dimethyl-2H-pyrazolo[4,3-b]pyridin-5-yl)-5-fluoro-3-(piperidin-4-yl)cinnoline] gave an IC50 of at most 100 nM.
For `CCCN1CCC(c2cc3c(F)cc(-c4cc(C)c5nc(C)cn5n4)cc3nn2)CC1` [Compound 77, 7-(2,8-dimethylimidazo[1,2-b]pyridazin-6-yl)-5-fluoro-3-(l-propylpiperidin-4-yl)cinnoline], the IC50 was at most 100 nM.
`Cc1cc(-c2cc3c(F)cc(C4CCNCC4)cc3nn2)cc2cn(C)nc12` [Compound 177, 3-(2,7-dimethyl-2H-indazol-5-yl)-5-fluoro-7-(piperidin-4-yl)cinnoline] gave an IC50 of at most 100 nM.
For `Cc1cc(-c2cc3c(F)cc([C@@]4(O)CCNC[C@@H]4O)cc3nn2)cc2cn(C)nc12` [Compound 203, (3S,4S)-4-[3-(2,7-dimethyl-2H-indazol-5-yl)-5-fluorocinnolin-7-yl]piperidine-3,4-diol], the IC50 was 500 to 1000 nM.
Compound `Cc1cn2cc(-c3cc4c(F)cc(C5CCNCC5)cc4nn3)cc(F)c2n1` [Compound 128, 5-fluoro-3-(8-fluoro-2-methylimidazo[1,2-a]pyridin-6-yl)-7-(piperidin-4-yl)cinnoline] has an IC50 of at most 100 nM.
For `CCN1CCCC(c2cc3c(F)cc(-c4cc(C)c5nc(C)cn5n4)cc3nn2)CC1` (stereo not drawn) [Compound 189, 7-(2,8-dimethylimidazo[1,2-b]pyridazin-6-yl)-3-(1-ethylazepan-4-yl)-5-fluorocinnoline], the IC50 was at most 100 nM.
In the case of `Cc1cn2cc(-c3cc(F)c4nc(C5CCNCC5)nnc4c3)cc(C(F)(F)F)c2n1` [Compound 61, 5-fluoro-7-[2-methyl-8-(trifluoromethyl)imidazo[1,2-a]pyridin-6-yl]-3-(piperidin-4-yl)-1,2,4-benzotriazine], the IC50 is reported as 500 to 1000 nM.
For `Cc1cc2cc(-c3cc(F)c4cc(C5CCNCC5)nnc4c3)oc2c(C)n1` [Compound 146, 7-(5,7-dimethylfuro[2,3-c]pyridin-2-yl)-5-fluoro-3-(piperidin-4-yl)cinnoline], the IC50 was at most 100 nM.
With `CCN1CCC(c2ccc3cc(-c4cc(C)c5nc(C)cn5n4)cc(F)c3n2)CC1` [Compound 48, 6-(2,8-dimethylimidazo[1,2-b]pyridazin-6-yl)-2-(1-ethylpiperidin-4-yl)-8-fluoroquinoline] the IC50 was at most 100 nM.
Compound `CCc1cc(-c2cc(F)c3cc(C4CCN(CC)CC4)nnc3c2)nc2cn(C)nc12` [Compound 174, 7-(7-ethyl-2-methyl-2H-pyrazolo[4,3-b]pyridin-5-yl)-3-(1-ethylpiperidin-4-yl)-5-fluorocinnoline] has an IC50 of at most 100 nM.
`Cc1cn2nc(-c3cc(F)c4cc(C5C[C@@H](C)N(CCF)[C@@H](C)C5)nnc4c3)cc(C)c2n1` (stereo partly drawn) [Compound 170, 7-(2,8-dimethylimidazo[1,2-b]pyridazin-6-yl)-5-fluoro-3-[(2R,6S)-1-(2-fluoroethyl)-2,6-dimethylpiperidin-4-yl]cinnoline] showed an IC50 of 100 to 500 nM.
`Cc1cc(-c2ccc3cc(C4CCNCC4)ncc3c2)cc2cn(C)nc12` [Compound 30, 7-(2,7-dimethyl-2H-indazol-5-yl)-3-(piperidin-4-yl)isoquinoline] gave an IC50 of 100 to 500 nM.
For `Cc1cn2nc(-c3cc(F)c4cc(C5=CC(C)(C)NC(C)(C)C5)nnc4c3)cc(C)c2n1` [Compound 208, 7-(2,8-dimethylimidazo[1,2-b]pyridazin-6-yl)-5-fluoro-3-(2,2,6,6-tetramethyl-1,2,3,6-tetrahydropyridin-4-yl)cinnoline], the IC50 was 100 to 500 nM.
For `CCN1CCC(c2cc(F)c3nc(-c4cc(F)c5nn(C)cc5c4)ccc3c2)CC1` [Compound 193, 6-(1-ethylpiperidin-4-yl)-8-fluoro-2-(7-fluoro-2-methyl-2H-indazol-5-yl)quinoline], the IC50 was at most 100 nM.
`Cc1cn2nc(-c3cc(F)c4nc(C5CCNCC5)nnc4c3)cc(C)c2n1` [Compound 46, 7-(2,8-dimethylimidazo[1,2-b]pyridazin-6-yl)-5-fluoro-3-(piperidin-4-yl)-1,2,4-benzotriazine] was tested, and the IC50 was at most 100 nM.
With `Cc1cn2nc(-c3cc(F)c4cc(C5CCNCC5)nnc4c3)cc(C#N)c2n1` [Compound 108, 6-[5-fluoro-3-(piperidin-4-yl)cinnolin-7-yl]-2-methylimidazo[1,2-b]pyridazine-8-carbonitrile] the IC50 was at most 100 nM.
`Cc1cn2cc(-c3cc(F)c4cc(C5CCNCC5)nnc4c3)cc2c(C)n1` [Compound 101, 7-(1,3-dimethylpyrrolo[1,2-a]pyrazin-7-yl)-5-fluoro-3-(piperidin-4-yl)cinnoline] was tested, and the IC50 was at most 100 nM.
In the case of `Cc1nc2c(C)cc(-c3cc(F)c4cc(C5CCNCC5)nnc4c3)nc2o1` [Compound 148, 7-(2,7-dimethyl[1,3]oxazolo[5,4-b]pyridin-5-yl)-5-fluoro-3-(piperidin-4-yl)cinnoline], the IC50 is reported as at most 100 nM.
Work on `Cc1cc2cc(-c3cc(F)c4cc(C5CCNCC5)nnc4c3)[nH]c2c(C)n1` [Compound 191, 7-(5,7-dimethyl-1H-pyrrolo[2,3-c]pyridin-2-yl)-5-fluoro-3-(piperidin-4-yl)cinnoline] yielded an IC50 of 100 to 500 nM.
Compound `Cc1cn2nc(-c3cc(F)c4cc(C5CCN(CCO)CC5)nnc4c3)cc(C)c2n1` [Compound 75, 2-{4-[7-(2,8-dimethylimidazo[1,2-b]pyridazin-6-yl)-5-fluorocinnolin-3-yl]piperidin-1-yl}ethanol] has an IC50 of at most 100 nM.
Work on `Cn1cc2cc(-c3nnc4cc(C5CCNCC5)ccc4n3)cc(C#N)c2n1` [Compound 26, 2-methyl-5-[7-(piperidin-4-yl)-1,2,4-benzotriazin-3-yl]-2H-indazole-7-carbonitrile] yielded an IC50 of at most 100 nM.
In the case of `CCN1CCC(c2cc3ccc(-c4cc(C)c5nc(C)cn5n4)cc3nn2)CC1` [Compound 85, 7-(2,8-dimethylimidazo[1,2-b]pyridazin-6-yl)-3-(1-ethylpiperidin-4-yl)cinnoline], the IC50 is reported as 100 to 500 nM.
Work on `Cc1cn2nc(-c3cc(F)c4cc(C5CCN(CCF)CC5)nnc4c3)cc(CO)c2n1` [Compound 182, (6-{5-fluoro-3-[1-(2-fluoroethyl)piperidin-4-yl]cinnolin-7-yl}-2-methylimidazo[1,2-b]pyridazin-8-yl)methanol] yielded an IC50 of at most 100 nM.
